Measurements: US6949679B1, “Polyamine transport inhibitors” (Universite Laval, priority 1998, dated 2005)

Experiments:
polyamine transporter [1] = test: Inhibition of [3H]spermidine uptake in CHO-K1 cells; format: cell-based, Chinese hamster; conditions: MESC thioether derivatives
Procedure: To 1 ml of an extemporaneously prepared, DTT-free solution of MESC (20 mM in […]) were added 50 μl of 50 mM Tris-HCl (pH 7.0) and 105 μl of a 40 mM solution of either iodoacetamide, LY iodoacetamide or ASIB in a light-protected microcentrifuge tube, and the mixture was incubated for 2 hours at 37° C. […] Excess iodoacetamide was then inactivated by adding DTT to a final concentration of 40 mM and incubating the solution for 2 hours at 37° C. […] The effect of the respective DTT-inactivated iodoacetamide on spermidine transport was determined in parallel by incubating cells with the same reaction mixture from which MESC was omitted. […] J. Biol. […] Cells were then lysed with 200-μl aliquot of 1 N NaOH and incubated for 30 minutes at 60° C. After neutralization with 200 μl of 1 N HCl, radioactivity was determined from a 250-μl of the cell lysate by scintillation counting. Uptake activity was expressed per amount of total cellular protein as determined by the method of Bradford (Bradford, M. M. 1976. Anal. Biochem. 72: 248-254). […] K[…] Ki and Vmax values were then estimated by Lineweaver-Burke analysis. For competitive inhibitors, Ki values were also estimated by measuring uptake activity in the presence of logarithmically increasing concentrations of antagonist, and using the Cheng-Prusoff equation (Cheng, Y.-C. and Prusoff, W. H. 1973. Biochem. Pharmacol. 22: 3099-3108) by iterative curve fitting for a sigmoidal curve. For mixed competitive/noncompetitive inhibition, two methods were used to calculate kinetic constants. […] C. 1976. Enzymes, 3rd Ed., Academic Press, San Diego, Calif.). […] C. 1976. Enzymes, 3rd Ed., Academic Press, San Diego, Calif.). Intracellular Accumulation

in vitro = conditions: human
Excerpt: FIG. 34 represents the relative cytotoxicity of sym-norspermidine (NSpd), BABAC and TADAX in ZR-75-1 human breast cancer cells. Data are the mean±SD of triplicate determinations from a representative experiment.

polyamine transporter [2] = test: Inhibition of [3H]spermidine uptake in ZR-75-1 cells; format: cell-based, human; conditions: FIG. 32, 20 μM and 3 μM substrate, respectively, read-out: Apparent Ki, spermidine uptake
Procedure: (§1) The rate of putrescine and spermidine transport was determined in ZR-75-1 cells incubated in serum-free RPMI 1640 medium as described (Lessard, M., Zhao, C., Singh, S. M. and Poulin, R. 1995. J. Biol. Chem. 270: 1685-1694), using [^3H]putrescine (30 Ci/mol) and [^3H]spermidine (20 Ci/mol), respectively as substrates for a 20 minute-assay period. Spermine uptake was similarly determined, using 1 μM [^14C]spermine (32 Ci/mol) as substrate. Uptake activity was expressed per amount of DNA as fluorometrically determined using 3,4-diaminobenzoic acid (Simard, J., Dauvois, S., Haagensen, D. E., Lėvesque, C., Mėrand, Y. and Labrie, F. 1990. Endocrinology, 126: 3223-3231). For the determination of spermidine uptake activity in CHO-K1 cells, 80% confluent cell monolayers were rinsed twice with PBS and incubated for 20 minutes at 37° C. in 400 μl of buffer A (20 mM Tris-HCl, pH 7.4; 0.42 mM CaCl2; 0.41 mM MgSO4; 103 mM NaCl; 5.7 mM KCl; 1.1 mM D-glucose) containing 5 μM [^3H]spermidine (20 Ci/mol). Cell cultures were then washed twice with 1 ml PBS containing 5.7 mM sym-norspermidine. Cells were then lysed with 200-μl aliquot of 1 N NaOH and incubated for 30 minutes at 60° C. After neutralization with 200 μl of 1 N HCl, radioactivity was determined from a 250-μl of the cell lysate by scintillation counting. Uptake activity was expressed per amount of total cellular protein as determined by the method of Bradford (Bradford, M. M. 1976. Anal. Biochem. 72: 248-254). Non-specific binding of radioactive substrate was similarly determined in parallel for both cell lines after a 15 second-incubation with 400 μl of ice-cold uptake solution.
Kinetic analysis of polyamine transport was performed by determining uptake activity in the presence of a 3 μM [^3H]putrescine or 1 μM [^3H]spermidine plus increasing concentrations of nonradioactive substrate. K[…] Ki and Vmax values were then estimated by Lineweaver-Burke analysis. For competitive inhibitors, Ki values were also estimated by measuring uptake activity in the presence of logarithmically increasing concentrations of antagonist, and using the Cheng-Prusoff equation (Cheng, Y.-C. and Prusoff, W. H. 1973. Biochem. Pharmacol. 22: 3099-3108) by iterative curve fitting for a sigmoidal curve. For mixed competitive/noncompetitive inhibition, two methods were used to calculate kinetic constants. First, the equation [drawing 2] where v, s, and i are the transport velocity, substrate concentration and inhibitor concentration respectively, was used to calculate the inhibition constants for inhibitor/carrier complex formation (Ki) and carrier/inhibitor/substrate complex formation (Ki′) (Dixon, M. and Webb, E. C. 1976. Enzymes, 3rd Ed., Academic Press, San Diego, Calif.). […]
(§2) In order to evaluate the effectiveness of dimeric triamines as polyamine transport inhibitors, we synthesized N,N′-bis(3-aminopropyl),N,N′-bis(4-aminobutyl)cystamine or BABAC (structure 1, FIG. 25; FIG. 31), and its thiol form N-(3-aminopropyl),N-(4-aminobutyl)cysteamine or AAC (FIG. 31) according to Scheme 4 described above (FIG. 30), using spermidine as a precursor polyamine. The ability of BABAC and AAC to inhibit the intracellular uptake of radio-labeled putrescine and spermidine in the ZR-75-1 human breast cancer cell line was then determined according to standard published procedures (Lessard, et al. and Poulin, et al.) Briefly, ZR-75-1 cells were grown for four days in twenty-four well plates in RPMI 1640 medium supplemented with 10% fetal bovine serum.

polyamine transporter [3] = test: Inhibition of [14C]spermine uptake in ZR-75-1 cells; format: cell-based, human; conditions: FIG. 32, read-out: Apparent Ki, spermine uptake
Procedure: as §1, with “Spermine uptake was similarly determined, using 1 μM [^14C]spermine (32 Ci/mol) as substrate.” left out
(§3) Kinetic analysis of polyamine transport was performed by determining uptake activity in the presence of a 3 μM [^3H]putrescine or 1 μM [^3H]spermidine plus increasing concentrations of nonradioactive substrate. K[…] Ki and Vmax values were then estimated by Lineweaver-Burke analysis. For competitive inhibitors, Ki values were also estimated by measuring uptake activity in the presence of logarithmically increasing concentrations of antagonist, and using the Cheng-Prusoff equation (Cheng, Y.-C. and Prusoff, W. H. 1973. Biochem. Pharmacol. 22: 3099-3108) by iterative curve fitting for a sigmoidal curve. For mixed competitive/noncompetitive inhibition, two methods were used to calculate kinetic constants. First, the equation [drawing 2] where v, s, and i are the transport velocity, substrate concentration and inhibitor concentration respectively, was used to calculate the inhibition constants for inhibitor/carrier complex formation (Ki) and carrier/inhibitor/substrate complex formation (Ki′) (Dixon, M. and Webb, E. C. 1976. Enzymes, 3rd Ed., Academic Press, San Diego, Calif.). Alternatively, the value of Ki for a mixed competitor/non-competitor was estimated from the intersect of equations v^−1 vs i at two different substrate concentrations (Dixon, M. and Webb, E. C. 1976. Enzymes, 3rd Ed., Academic Press, San Diego, Calif.). Intracellular Accumulation
as §2

polyamine transporter [4] = test: Inhibition of [3H]putrescine uptake in ZR-75-1 cells; format: cell-based, human; conditions: ZR-75-1 cells, FIG. 32; 20 μM and 3 μM substrate, respectively; read-out: Apparent Ki, putrescine uptake
Procedure: as §1, §3, §2

ZR-75-1 cells [5] = test: Time course of intracellular [3H]spermidine accumulation in presence of transport antagonists; format: cell-based, human; conditions: 200 μM CHX, after 4 hours
Procedure: The time course of intracellular accumulation of spermidine in the presence of transport antagonists was determined by incubating ZR-75-1 cells in 24-well plates with DESC (50 or 200 μM) or MESC (200 μM) in dissolved in MEZR medium containing 5 μM [^3H]spermidine in the presence or absence of cycloheximide (CHX, 200 μM), and harvesting at the indicated times for the determination of intracellular radioactive contents, as described above for polyamine uptake assays.

ZR-75-1 cells [6] = test: Effect on ZR-75-1 cell proliferation (11 days, DNA content); format: cell-based, human; conditions: 1 mM
Procedure: (§4) For growth studies, ZR-75-1 cells were cultured in MEZR medium or in phenol red-free RPMI 1640 supplemented with 2 mM L-glutamine, 1 mM sodium pyruvate, 15 mM Hepes, antibiotics, 1 nM 17β-estradiol, 0.5 μg of bovine insulin per ml and 5% (v/v) charcoal-treated fetal bovine serum (SD medium), as indicated in the text. When polyamines or polyamine analogs were added to serum-containing media, 1 mM aminoguanidine was added to inhibit bovine serum amine oxidase (BSAO) activity (Morgan, D. M. L. 1989, in The Physiology of Polyamines (Bachrach, U., and Heimer, Y. M. eds) Vol. I, pp. 203-229, CRC Press, Boca Raton). The effect of the transport inhibitors on cell growth was measured by incubating ZR-75-1 cells for 11 days in medium supplemented with antagonist, polyamines and/or 1 mM DFMO as indicated, followed by colorimetric determination of DNA content with 3,4-diaminobenzoic acid (Simard, J., Dauvois, S., Haagensen, D. E., Lėvesque C., Mėrand, Y. and Labriė, F. 1990. Endocrinology 126: 3223-3231). Medium was changed every other day in these experiments because of the slow reaction of the compound with an unknown component present in the IMEM and RPMI 1640 medium formulation.
The biocompatibility of DESC, MESC, and DEASC was thus evaluated during a long-term (11-day) incubation with ZR-75-1 cells grown in RPMI 1640 containing 10% (v/v) FBS in the absence and presence of 1 mM aminoguanidine. […] Weak growth inhibition caused by the mixed MESC-cysteamine disulfide, however, apparently involved degradation by a copper amine oxidase.

ZR-75-1 cells [7] = test: Reversal of DFMO-induced growth inhibition by exogenous spermidine; format: cell-based, human; conditions: Homo sapiens, ZR-75-1, 264 h; 1 mM DFMO, 11-day incubation
Procedure: as §4, with “3223-3231).” for “3223-3231). Medium was changed every other day in these experiments because of the slow reaction of the compound with an unknown component present in the IMEM and RPMI 1640 medium formulation.”
This possibility was assessed by comparing the ability of DESC to prevent the reversal of DFMO-induced growth inhibition by increasing concentrations of exogenous spermidine.

NCCCNCCCC(NCCCN)C(=O)NCCSCC(N)=O (centres unmarked) [MESC-acetamide]
Ki toward spermidine uptake compared with MESC (polyamine transporter [1]): virtually identical to that of MESC

NCCCNCCCN [sym-norspermidine, N-(3-aminopropyl)-1,3-diaminopropane, reference compound]
IC50 (in vitro): 6.4 µM

NCCCCN(CCS)CCCN [AAC, N-(3-aminopropyl),N-(4-aminobutyl)cysteamine]
Ki (polyamine transporter [2]): 4.37 µM
Ki (polyamine transporter [3]): 3.9 µM
Ki (polyamine transporter [4]): 0.54 µM

C[C@@H]1C[C@@H]([C@H](O)CC2CC(=O)NC(=O)C2)C(=O)[C@@H](C)C1 [CHX, cycloheximide, reference compound]
Increase in spermidine accumulation (ZR-75-1 cells [5]): 4 fold

N=C(N)NN [aminoguanidine, reference compound]
Effect of aminoguanidine alone on cell growth (ZR-75-1 cells [6]): slight inhibitory effect

NCCCC(N)(C(=O)O)C(F)F (racemic) [DFMO, D,L-α-difluoromethylornithine]
inhibition at 1000 µM (ZR-75-1 cells [7]): ~50%

NCCCNCCCC(NCCCN)C(=O)NCCSCC(=O)NCCN1C(=O)c2cc(S(=O)(=O)O)cc3c(N)c(S(=O)(=O)O)cc(c23)C1=O (centres unmarked) [MESC-LY]
Ki toward spermidine uptake compared with MESC (polyamine transporter [1]): virtually identical to that of MESC

NCCCCN(CCCN)CCSSCCN(CCCN)CCCCN [BABAC, N,N′-bis(3-aminopropyl),N,N′-bis(4-aminobutyl)cystamine]
IC50 (in vitro; ZR-75-1 cells): 17 µM
Ki (polyamine transporter [2]): 0.68 µM
Ki (polyamine transporter [3]): 2.1 µM
Ki (polyamine transporter [4]): 0.15 µM

[N-]=[N+]=Nc1ccc(C(=O)NCCCCNC(=O)CSCCNC(=O)C(CCCNCCCN)NCCCN)c(O)c1 (centres unmarked) [MESC-ASIB]
Ki toward spermidine uptake compared with MESC (polyamine transporter [1]): virtually identical to that of MESC
